Key:
Format in all cases: cell-based, rat
insulin receptor = assay: Insulin receptor expression by immunoblotting with anti-IR antibody
Method: The amount of insulin receptor expression in the maturation process was then examined (FIG. 4). After the VSCs had been cultured for 7, 8, or 9 days, the total cell lysate (20 μg protein) was separated by SDS-PAGE and the IR was detected by immunoblotting with anti-IR antibody. In addition, actin was detected by immunoblotting with anti-actin antibody as the loading control. […] VSCs were cultured for 3 days in the presence of 10 μg/mL insulin or 200 ng/mL IGF-1, after which the total cell lysate (20 μg protein) was separated by SDS-PAGE and the insulin receptor was detected by immunoblotting with anti-insulin receptor (IR) antibody. Actin was detected by immunoblotting with anti-actin antibody as a loading control. […] After culture for 7 days, the total cell lysate (20 μg protein) was separated by SDS-PAGE and the IR was determined by immunoblotting with anti-IR antibody. Actin was detected by immunoblotting with anti-actin antibody as a loading control.

adiponectin = assay: Adiponectin content of the culture medium (ELISA)
Method: The conventionally used dexamethasone-based differentiation induction system was first evaluated. 2.5 μM dexamethasone and 10 μg/mL insulin or 10 μg/mL insulin was added to the medium to allow for VSC differentiation and maturation for 7 days. […] When dexamethasone was also added to the differentiation induction culture medium, single cell enlargement was promoted (FIG. 1B), although there was no difference in the differentiation efficiency. In addition, the norepinephrine-induced triglyceride degradation reaction was reduced (data not shown).
After 9-day culture with 200 ng/mL IGF-1 and different insulin concentrations, the culture medium was taken and the adiponectin content was measured by ELISA. When VSCs were cultured for 9 days with the constant presence of 200 ng/mL IGF-1 and insulin at a concentration of 10 μg/mL (lane 1), 70 ng/mL (lane 2), 22 ng/mL (lane 3), or 2.5 ng/mL (lane 4), the amount of adiponectin secretion was reduced at insulin concentrations of 70 ng/mL and above (FIG. 9A). When VSCs were cultured for the first 4 days with 200 ng/mL IGF-1 and 2.5 ng/mL insulin followed by 5 days with 200 ng/mL IGF-1 and insulin at a concentration of 10 μg/mL (lane 1), 70 ng/mL (lane 2), 22 ng/mL (lane 3), or 2.5 ng/mL (lane 4), adiponectin secretion was again reduced at insulin concentrations of 70 ng/mL and above (FIG. 9B). […]

aP2 mRNA = aP2 mRNA expression by real-time PCR
Method: (§1) Differentiation conditions 1 to 12 in FIG. 2A correspond to the 1 to 12 in FIGS. 2B, 2C, and 2D (B: photographs after culture for 7 days; C: mRNA was separated after culture for 7 days, and the level of C/EBPα mRNA expression was measured by real-time PCR (the value on day 0 of culture was set at 1); D: the level of aP2 mRNA expression was measured by real-time PCR (the value on day 7 of culture for condition 1 was set at 1)).
(§2) A continuous 7-day culture was carried out in a culture medium containing 200 ng/mL IGF-1 (normal concentration in human blood=150 to 250 ng/mL), and the amount of mRNA expression was then measured for C/EBPα (adipocyte differentiation marker), aP2 (adipocyte differentiation marker), and C/EBPβ (differentiation marker for undifferentiated adipocytes). The results are shown in FIG. 5 (A: photographs after culture for 7 days. 1: cultured with 200 ng/mL IGF-1 for 3 days and then with 22 ng/mL insulin for 4 days. 2: cultured with 200 ng/mL IGF-1 and 22 ng/mL insulin for 7 days. 3: cultured with 200 ng/mL IGF-1 for 7 days. The 1 to 3 corresponds to lanes 1 to 3 in FIGS. 5B to 5D. B: mRNA was separated after the 7-day culture and the amount of C/EBPα mRNA expression was measured by real-time PCR. The value for a culture of 3 days with 10 μg/mL insulin and then 4 days with 22 ng/mL insulin was set at 1. C: mRNA was separated after the 7-day culture and the amount of aP2 mRNA expression was measured by real-time PCR. The value for a culture of 3 days with 10 μg/mL insulin and then 4 days with 22 ng/mL insulin was set at 1. D: mRNA was separated after the 7-day culture and the amount of C/EBPβ mRNA expression was measured by real-time PCR. The value for a culture of 3 days with 10 μg/mL insulin and then 4 days with 22 ng/mL insulin was set at 1.).
The influence of various combinations of IGF-1 and insulin on VAC differentiation induction and maturation was investigated. The results are shown in FIG. 6 (A: photographs after culture for 7 days. 1: cultured with 200 ng/mL IGF-1 for 3 days and then with 2.5 ng/mL insulin for 4 days. 2: cultured with 200 ng/mL IGF-1 and 2.5 ng/mL insulin for 7 days. 3: cultured with 200 ng/mL IGF-1 for 3 days and then with 0.85 ng/mL insulin for 4 days. 4: cultured with 200 ng/mL IGF-1 and 0.85 ng/mL insulin for 7 days. B: mRNA was separated after the 7-day culture and the amount of C/EBPβ mRNA expression was measured by real-time PCR. The value for a culture of 3 days with 10 μg/mL insulin and then 4 days with 22 ng/mL insulin was set at 1. C: mRNA was separated after the 7-day culture and the amount of aP2 mRNA expression was measured by real-time PCR. The value for a culture of 3 days with 10 μg/mL insulin and then 4 days with 22 ng/mL insulin was set at 1.).

[1] = test system: VSC (visceral stromal cells=preadipocytes); assay: Induction of VSC-to-VAC differentiation (lipid droplet formation, photographs after culture)
Method: Mesenteric fat tissue was excised from the abdominal cavity of 3-5 week old male Sprague-Dawley rats (average body weight=100 g) and was washed three times with Hanks' balanced salt solution. The fat was minced with scissors and then incubated for 40 minutes at 37° C. in DMEM/F-12 culture medium containing 0.2% collagenase and 1.0% bovine albumin. The collagenase-digested tissue suspension was subsequently filtered through 600 μm mesh and Hanks' balanced salt solution was added. After centrifugation for 10 minutes at 800×g, the sediment was washed three times with Hanks' balanced salt solution and once with DMEM/F-12 culture medium and was then filtered through 100 μm mesh. The cell suspension thus prepared from the intraabdominal mesenteric fat was seeded to dishes at 0.5×10^5 cells/cm^2, and incubated at 37° C. and 5% CO2 in the culture medium with the indicated composition. The culture medium was changed once a day or once every two days. The culture medium was prepared by the addition of 17 mM pantothenic acid, 33 mM biotin, 100 mM ascorbic acid, 1 mM octanoic acid, 50 nM triiodothyronine, 100 unit/mL penicillin, and 100 mg/mL streptomycin to a basal culture medium of (DMEM)/F12 containing 10% NCS. Insulin and IGF-1 were added in the specified concentrations, and the resulting culture medium was used in the experiments described below.

adiponectin mRNA = assay: Adiponectin mRNA expression by real-time PCR
Method: The level of adiponectin mRNA expression was then examined with the aim of investigating the influence of the insulin concentration on VAC function (FIG. 3). After the VSCs had been differentiated by 10 μg/mL insulin for 3 days, they were then cultured for 4 days in the presence of 10 μg/mL insulin (lane 2), 0.2 μg/mL insulin (lane 3), 70 ng/mL insulin (lane 4), 22 ng/mL insulin (lane 5), or 7.4 ng/mL insulin (lane 6). After the 7-day culture, mRNA was separated and the amount of adiponectin mRNA expression was measured by real-time PCR. The value for the 7-day culture in the absence of insulin was set at 1. The results are shown in FIG. 3 (1: cultured for 7 days without insulin. 2: cultured for 7 days with 10 μg/mL insulin. 3: induction of differentiation for 3 days with 10 μg/mL insulin followed by culture for 4 days with 0.2 μg/mL insulin. 4: induction of differentiation for 3 days with 10 μg/mL insulin followed by culture for 4 days with 70 ng/mL insulin. 5: induction of differentiation for 3 days with 10 μg/mL insulin followed by culture for 4 days with 22 ng/mL insulin. 6: induction of differentiation for 3 days with 10 μg/mL insulin followed by culture for 4 days with 7.4 ng/mL insulin.).

C/EBPα mRNA = C/EBPα mRNA expression by real-time PCR
Method: as §1, §2
Additional investigations were then carried out into the IGF-1 concentration required for differentiation. Proceeding in the same manner as described above, VSCs were cultured for 7 days in the presence of 0.85 ng/mL insulin and IGF-1 at different concentrations. After culturing, mRNA was separated and the amount of C/EBPα mRNA expression was measured by real-time PCR. After culture for 7 days, mRNA was separated and the amount of C/EBPα mRNA expression and the amount of C/EBPβ mRNA expression were measured by real-time PCR. The value for the amount of mRNA expression for culture with 10 μg/mL insulin for 3 days followed by with 22 ng/mL insulin for 4 days was set at 1.

C/EBPβ mRNA = C/EBPβ mRNA expression by real-time PCR
Method: as §2, with “real-time PCR. […] D: mRNA” for “real-time PCR. The value for a culture of 3 days with 10 μg/mL insulin and then 4 days with 22 ng/mL insulin was set at 1. D: mRNA”, “real-time PCR. […]” for “real-time PCR. The value for a culture of 3 days with 10 μg/mL insulin and then 4 days with 22 ng/mL insulin was set at 1.).”
The influence of various combinations of IGF-1 and insulin on VAC differentiation induction and maturation was investigated. […] C: mRNA was separated after the 7-day culture and the amount of aP2 mRNA expression was measured by real-time PCR. […]

[2] = 7-day culture with only IGF-1 (200 ng/mL), vs 10 μg/mL insulin then 22 ng/mL insulin

**Q.** Which results are given for insulin?
**A.** amount of insulin receptor expression (insulin receptor; 3-day induction with 10 μg/mL insulin vs 200 ng/mL IGF-1 or 200 ng/mL IGF-1 and 22 ng/mL insulin): decline; insulin receptor expression (insulin receptor; 3 days 10 μg/mL insulin, maturation with 22 ng/mL, then culture with insulin at 70 ng/mL or greater vs 22 ng/mL, 7, 8 or 9 days): substantial decline; adiponectin secretion (adiponectin; 4 days 200 ng/mL IGF-1 and 2.5 ng/mL insulin, then 5 days 200 ng/mL IGF-1 and insulin at 70 ng/mL and above): again reduced; amount of adiponectin secretion (adiponectin; 9 days, constant 200 ng/mL IGF-1 and insulin at 70 ng/mL and above (vs 22 or 2.5 ng/mL)): reduced; aP2 mRNA expression level (aP2 mRNA; 10 μg/mL insulin for 3 days, then at least 22 ng/mL insulin (condition 11), vs constant 10 μg/mL insulin): the same level; aP2 mRNA expression level (aP2 mRNA; 10 μg/mL insulin for 3 days, then insulin at or below 7.4 ng/mL (condition 12), vs constant 10 μg/mL insulin): less aP2 expression; aP2 mRNA expression level (aP2 mRNA; 10 μg/mL insulin for only 2 days (condition 5), vs constant 10 μg/mL insulin): less aP2 expression; aP2 mRNA expression level (aP2 mRNA; constant presence of 0.2 μg/mL insulin, vs constant 10 μg/mL insulin (condition 2)): less aP2 expression; lipid droplet formation ([1]; 0.2 μg/mL insulin, 7 days (condition 3)): entirely absent; lipid droplet accumulation ([1]; 10 μg/mL insulin for 2 days followed by 0.2 μg/mL insulin, total of 7 days (condition 5)): significant decline; lipid droplet formation ([1]; 10 μg/mL insulin for 3 days, then insulin reduced to 22 ng/mL (condition 11)): same level; differentiation into adipocytes (lipid droplets) ([1]; 10 μg/mL insulin, 7 days (condition 2)): differentiation into adipocytes occurred; fat accumulation ([1]; 10 μg/mL insulin, VSC differentiation and maturation for 7 days): normal fat accumulation; lipid droplet accumulation ([1]; 3-day treatment with 10 μg/mL insulin without the ensuing 0.2 μg/mL insulin, vs system containing 0.2 μg/mL insulin): significant decline; level of adiponectin mRNA expression (adiponectin mRNA; 10 μg/mL insulin for 3 days then 4 days 7.4 ng/mL insulin (lane 6)): reduced; level of adiponectin mRNA expression (adiponectin mRNA; 7-day culture with 10 μg/mL insulin (lane 2) vs 3 days 10 μg/mL then 4 days 0.2 μg/mL to 22 ng/mL (lanes 3 to 5)): lower level; C/EBPα mRNA expression level (C/EBPα mRNA; 10 μg/mL insulin for 2 days (conditions 4 and 5), 7 days): did not increase; C/EBPα mRNA expression level (C/EBPα mRNA; 10 μg/mL insulin for only 3 days followed by absence of insulin for 4 days (condition 6)): did rise; C/EBPα mRNA expression level (C/EBPα mRNA; constant presence of 0.2 μg/mL insulin (condition 3), 7 days): did not increase

**Q.** With insulin-like growth factor-1 [IGF-1] as the substance, how does the “expression of aP2 mRNA” value (aP2 mRNA; [2]) read?
**A.** increased

**Q.** What about the “accumulation of lipid droplets” value ([1]; 200 ng/mL IGF-1 alone, 7 days) of the same substance?
**A.** not seen

**Q.** And the differentiation efficiency ([1]; IGF-1 concentrations of 50 ng/mL and below, plus 0.85 ng/mL insulin, 7 days)?
**A.** decline

**Q.** And the “amount of C/EBPβ mRNA” value (C/EBPβ mRNA; 7-day culture with IGF-1 alone (200 ng/mL; FIG. 5D, lane 3))?
**A.** maintained

**Q.** What about the “amount of C/EBPβ mRNA expression” value (C/EBPβ mRNA; IGF-1 concentrations of 50 ng/mL or less vs 200 ng/mL IGF-1, plus 0.85 ng/mL insulin, 7 days) of the same substance?
**A.** increased amounts of expression

**Q.** And the “expression of C/EBPα mRNA” value (C/EBPα mRNA; [2])?
**A.** increased

**Q.** And the “amount of C/EBPα mRNA expression” value (C/EBPα mRNA; as a function of the IGF-1 concentration (10 to 800 ng/mL) plus 0.85 ng/mL insulin, 7 days)?
**A.** no changes

— patent US20090233326A1, “METHOD FOR INDUCTION OF THE DIFFERENTIATION OF VISCERAL FAT CELL” (priority 2006, published 2009)
